Literature values in publication PMC5356695, “A phase 1 study of oral ridaforolimus in pediatric patients with advanced solid tumors” (Oncotarget, 2016).
Read-outs that look alike come from different tables or passages of the source.

Columns and labels:
[1] = system: advanced soft tissue and bone sarcomas; conditions: cited from earlier work
[2] = system: adults with advanced solid tumors; conditions: cited from earlier work
[3] = 7 pediatric patients aged 13 to 17 years

CO[C@H]1C[C@@H]2CC[C@@H](C)[C@@](O)(O2)C(=O)C(=O)N2CCCC[C@H]2C(=O)O[C@H]([C@H](C)C[C@@H]2CC[C@@H](OP(C)(C)=O)[C@H](OC)C2)CC(=O)[C@H](C)/C=C(\C)[C@@H](O)[C@@H](OC)C(=O)[C@H](C)C[C@H](C)/C=C/C=C/C=C/1C [ridaforolimus]
Patients with partial response [1, 3]: 1 | Patients with progressive disease [1, 3]: 2 | Patients with stable disease [1, 3]: 4 | Reduction of risk of progression or death compared with placebo ([1]; oral, after benefit from preceding chemotherapy): 28% | MTD ([2]; intravenous): 18.75 mg/day | Adult RP2D ([2]; oral, once daily for 5 days per week): 40 mg | MTD ([2]; oral, once daily × 5 days per week regimen): 40 mg
